From US20260324636A1, “COMPOSITION FOR PROVIDING PLANT WITH STRESS RESISTANCE” (KIRIN HOLDINGS KABUSHIKI KAISHA, priority 2022, published 2026)

Key:
ZAT10 = experiment: Histone H4 acetylation level of ZAT10 by chromatin immunoprecipitation and quantitative PCR, Example 14; assay type: in vivo, Arabidopsis thaliana (Col-0); conditions: Arabidopsis thaliana; 0.4 mM in medium, 2 hours after application; read-out: histone H4 acetylation level of ZAT10, increase vs group not subjected to the treatment
Method: A wild-type Arabidopsis thaliana strain (accession: Col-0) was used as an experimental material. Seeds were purchased from Inplanta Innovations Inc.
A liquid medium containing a ½ Murashige and Skoog Plant Salt Mixture (Nacalai) and 1 (w/v) % sucrose (FUJIFILM Wako) was used as a growth medium.
Arabidopsis thaliana seeds were sterilized with the use of a Kitchen Haiter® liquid (Kao Corporation) diluted to one-half concentration with distilled water for 3 minutes, washed 3 times with sterile distilled water, and then incubated at 4° C. overnight. The growth medium (100 ml) was prepared in a 300-ml flask, the incubated seeds were seeded therein, the flask was transferred to an incubator (TOMY), and shake culture was then initiated. The incubator was maintained at a temperature of 22° C. for a daily cycle of 16 hours light and 8 hours darkness, and the rotation speed of the shaker was set at 180 rpm.
A stock solution of N-acetylglutamic acid (Tokyo Chemical Industry Co., Ltd.) was added to Arabidopsis thaliana 7 days after seeding to the final concentration of 0 mM and 0.4 mM in the media, followed by incubation for 2 hours. Sample fixation following incubation was performed in accordance with Yamaguchi et al (Arabidopsis Book, Feb. 17, 2014; 12: e0170). […]

rice = experiment: High-temperature stress resistance in rice (fresh weight of aboveground part), Example 3; assay type: in vivo, rice (variety: Nipponbare); conditions: 0.5 mM in medium, 24 h before 44° C. for 3 hours, then 22° C. 3 days
Method: A wild-type rice strain (the variety: Nipponbare) was used as an experimental material. Seeds were purchased from Nouken (https://nouken-seed.shop-pro.jp/).
A liquid medium consisting of a ½ Murashige and Skoog Plant Salt Mixture (Nacalai) was used as a growth medium.
With the use of a 50-ml Falcon tube, rice seeds were sterilized for 30 minutes with the use of a Kitchen Haiter® liquid (Kao Corporation) diluted to one-half concentration with distilled water for 30 minutes and washed 5 times with sterile distilled water. The tube was laid down, sterile distilled water was introduced thereinto in an amount that would sufficiently soak the washed seeds, and culture was performed in an incubator for 3 days to germinate the seeds. The incubator was maintained at a temperature of 30° C. for a daily cycle of 16 hours light and 8 hours darkness.
The growth medium was dispensed at 3 ml/well on a 12-well microplate (IWAKI) 3 days after the initiation of incubation, 3 grains of the germinated seeds were inoculated in each well, and the resultants were handled as experimental materials. […]
High-temperature treatment was performed with the use of an incubator. […] Thereafter, the plate was incubated in an incubator maintained at 22° C. for 3 days, plants were collected, and the fresh weight of the aboveground part excluding seeds and roots was quantified.

Question: How did the fold induction at 400 µM (ZAT10) turn out when `CC(=O)N[C@@H](CCC(=O)O)C(=O)O` [N-acetylglutamic acid] was run?
Answer: The fold induction at 400 µM was 1.9.

Question: What about the “decrease in the fresh weight of the aboveground part caused by high-temperature treatment” value (rice) of the same compound?
Answer: The value was “suppressed to a significant extent”.
